Source: US11787780B2 (CORCEPT THERAPEUTICS INCORPORATED, priority 2020, dated 2023)

Columns and labels:
[1] = molecular target: glucocorticoid receptor (GR) recombinant ligand binding domain (LBD) (Homo sapiens (Human), UniProt P04150); assay: GR binding fluorescence polarisation (FP) assay; conditions: displacement of fluorescently tagged ligand
Experimental: Binding of test compounds to the glucocorticoid receptor (GR) is determined using a fluorescence polarisation (FP) assay utilising a recombinant ligand binding domain (LBD) of GR. The test compounds are assessed by their ability to displace a fluorescently tagged ligand and detection of the resulting decrease in fluorescence polarisation.

[2] = test system: induction of TAT by dexamethasone in HepG2 cells; assay: Hep G2 TAT assay (inhibition of dexamethasone-induced TAT); assay type: cell-based, human; conditions: challenge of 100 nM dexamethasone, IC50 converted to Ki by Cheng and Prusoff equation

Chain of glucocorticoid receptor (GR) recombinant ligand binding domain (LBD) (P04150 524-758): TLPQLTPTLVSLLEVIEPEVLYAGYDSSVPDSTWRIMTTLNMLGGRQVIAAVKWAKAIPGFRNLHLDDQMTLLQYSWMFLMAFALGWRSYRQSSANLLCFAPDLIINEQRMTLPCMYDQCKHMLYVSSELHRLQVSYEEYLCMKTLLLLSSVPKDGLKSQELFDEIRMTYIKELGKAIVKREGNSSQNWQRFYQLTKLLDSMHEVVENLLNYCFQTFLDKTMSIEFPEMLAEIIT

SMILES | IC50 [1] [nM] | Ki [2] [nM]
Cc1cc2c(cnn2-c2ccnn2C)cc1C1(Cc2ccccc2)CCN(S(=O)(=O)c2cnn(C)n2)C1 (stereo not drawn) [Example 260, 5-(3-benzyl-1-((2-methyl-2H-1,2,3-triazol-4-yl)sulfonyl)pyrrolidin-3-yl)-6-methyl-1-(1-methyl-1H-pyrazol-5-yl)-1H-indazole] | 150 | 350
Cc1cc2c(cnn2-c2cc(C3CC3)c(=O)n(C)c2)cc1C1(Cc2ccccc2)CCN(S(=O)(=O)c2cnn(C)n2)C1 (stereo not drawn) [Example 262, 5-(5-(3-benzyl-1-((2-methyl-2H-1,2,3-triazol-4-yl)sulfonyl)pyrrolidin-3-yl)-6-methyl-1H-indazol-1-yl)-3-cyclopropyl-1-methylpyridin-2(1H)-one] | 280 | 190
CCc1cc(-n2ncc3cc(C4(Cc5ccccc5)CCN(S(=O)(=O)c5cnn(C)n5)C4)c(C)cc32)cn(C)c1=O (stereo not drawn) [Example 263, 5-(5-(3-benzyl-1-((2-methyl-2H-1,2,3-triazol-4-yl)sulfonyl)pyrrolidin-3-yl)-6-methyl-1H-indazol-1-yl)-3-ethyl-1-methylpyridin-2(1H)-one] | 110 | 100
Cc1cc2c(cnn2-c2cnn(C3COC3)c2)cc1C1(Cc2ccccc2)CCN(S(=O)(=O)c2cnn(C)n2)C1 (stereo not drawn) [Example 264, 5-(3-benzyl-1-((2-methyl-2H-1,2,3-triazol-4-yl)sulfonyl)pyrrolidin-3-yl)-6-methyl-1-(1-(oxetan-3-yl)-1H-pyrazol-4-yl)-1H-indazole] | 26 | 210
COc1cc2c(cnn2-c2ccc(=O)n(C)c2)cc1C1(Cc2ccccc2)CCN(S(=O)(=O)c2cnn(C)n2)C1 (stereo not drawn) [Example 265, 5-(5-(3-benzyl-1-((2-methyl-2H-1,2,3-triazol-4-yl)sulfonyl)pyrrolidin-3-yl)-6-methoxy-1H-indazol-1-yl)-1-methylpyridin-2(1H)-one] | 16 | 120
Cc1cc2c(cnn2-c2cc(C)c(=O)n(C)c2)cc1C1(Cc2ccccc2)CCN(S(=O)(=O)c2ccc(F)c(F)c2)C1 (stereo not drawn) [Example 271, 5-(5-(3-benzyl-1-((3,4-difluorophenyl)sulfonyl)pyrrolidin-3-yl)-6-methyl-1H-indazol-1-yl)-1,3-dimethylpyridin-2(1H)-one] | 20 | 55
Cc1cc2c(cnn2-c2cnn(C)c2)cc1C1(Cc2ccccc2)CCN(S(=O)(=O)c2ccc(F)c(F)c2)C1 (stereo not drawn) [Example 272, 5-(3-benzyl-1-((3,4-difluorophenyl)sulfonyl)pyrrolidin-3-yl)-6-methyl-1-(1-methyl-1H-pyrazol-4-yl)-1H-indazole] | 22 | 29
Cc1cc2c(cnn2-c2ccc(=O)n(C)c2)cc1C1(C(C)c2ccccc2)CCN(S(=O)(=O)c2cnn(C)n2)C1 (stereo not drawn) [Example 274, 1-methyl-5-(6-methyl-5-(1-((2-methyl-2H-1,2,3-triazol-4-yl)sulfonyl)-3-(1-phenylethyl)pyrrolidin-3-yl)-1H-indazol-1-yl)pyridin-2(1H)-one] | 81 | 290
Cc1cc2c(cnn2-c2ccc(=O)n(C)c2)cc1C1(Cc2ccccc2)CCN(S(=O)(=O)c2cn(C)nn2)C1 (stereo not drawn) [Example 275, 5-(5-(3-benzyl-1-((1-methyl-1H-1,2,3-triazol-4-yl)sulfonyl)pyrrolidin-3-yl)-6-methyl-1H-indazol-1-yl)-1-methylpyridin-2(1H)-one] | 18 | 70
Cc1cc2c(cnn2-c2ccc(=O)n(C)c2)cc1C1(Cc2ccccc2)CCN(S(=O)(=O)c2cccnc2)C1 (stereo not drawn) [Example 286, 5-(5-(3-benzyl-1-(pyridin-3-ylsulfonyl)pyrrolidin-3-yl)-6-methyl-1H-indazol-1-yl)-1-methylpyridin-2(1H)-one] | 11 | 52
Cc1cc2c(cnn2-c2ccc(=O)n(C)c2)cc1C1(Cc2ccccc2)CCN(S(=O)(=O)c2cn(C)c(C)n2)C1 (stereo not drawn) [Example 288] | 33 | 110
Cc1cc2c(cnn2-c2ccc(=O)n(C)c2)cc1C1(Cc2ccccc2)CCN(S(=O)(=O)C2CC2)C1 (stereo not drawn) [Example 289, 5-(5-(3-benzyl-1-(cyclopropylsulfonyl)pyrrolidin-3-yl)-6-methyl-1H-indazol-1-yl)-1-methylpyridin-2(1H)-one] | 13 | 69
Cc1cc2c(cnn2-c2ccc(=O)n(C)c2)cc1C1(Cc2ccccc2)CCN(S(=O)(=O)c2cn(C)cn2)C1 (stereo not drawn) [Example 290, 5-(5-(3-benzyl-1-((1-methyl-1H-imidazol-4-yl)sulfonyl)pyrrolidin-3-yl)-6-methyl-1H-indazol-1-yl)-1-methylpyridin-2(1H)-one] | 62 | 200
Cc1cc2c(cnn2-c2ccc(=O)n(C)c2)cc1C1(Cc2ccccc2)CCN(S(=O)(=O)c2ccc(C(F)(F)F)nc2)C1 (stereo not drawn) [Example 292, 5-(5-(3-benzyl-1-((6-(trifluoromethyl)pyridin-3-yl)sulfonyl)pyrrolidin-3-yl)-6-methyl-1H-indazol-1-yl)-1-methylpyridin-2(1H)-one] | 14 | 110

Molecules with a lower IC50 [1], results first:

IC50 [1] [nM] | SMILES | Ki [2] [nM]
10 | Cc1cc2c(cnn2-c2ccc(=O)n(C)c2)cc1C1(Cc2ccccc2)CCN(S(=O)(=O)c2cc(F)cc(F)c2)C1 (stereo not drawn) [Example 297, 5-(5-(3-benzyl-1-((3,5-difluorophenyl)sulfonyl)pyrrolidin-3-yl)-6-methyl-1H-indazol-1-yl)-1-methylpyridin-2(1H)-one] | 36
8.8 | Cc1ccc(S(=O)(=O)N2CCC(Cc3ccccc3)(c3cc4cnn(-c5ccc(=O)n(C)c5)c4cc3C)C2)cn1 (stereo not drawn) [Example 299, 5-(5-(3-benzyl-1-((6-methylpyridin-3-yl)sulfonyl)pyrrolidin-3-yl)-6-methyl-1H-indazol-1-yl)-1-methylpyridin-2(1H)-one] | 48
6.9 | [2H]C([2H])([2H])n1ncc(S(=O)(=O)N2CCC(Cc3ccccc3)(c3cc4cnn(-c5ccc(=O)n(C)c5)c4cc3C)C2)n1 (stereo not drawn) [Example 296, 5-(5-(3-benzyl-1-((2-(methyl-d3)-2H-1,2,3-triazol-4-yl)sulfonyl)pyrrolidin-3-yl)-6-methyl-1H-indazol-1-yl)-1-methylpyridin-2(1H)-one] | 44
6.7 | Cc1cc2c(cnn2-c2ccc(=O)n(C)c2)cc1C1(Cc2ccccc2)CCN(S(=O)(=O)c2ccc(F)c(F)c2)C1 (stereo not drawn) [Example 287, 5-(5-(3-benzyl-1-((3,4-difluorophenyl)sulfonyl)pyrrolidin-3-yl)-6-methyl-1H-indazol-1-yl)-1-methylpyridin-2(1H)-one] | 25
6.3 | Cc1cc2c(cnn2-c2ccc(=O)n(C)c2)cc1C1(Cc2ccccc2)CCN(S(=O)(=O)c2cccc(C#N)c2)C1 (stereo not drawn) [Example 295, 3-((3-benzyl-3-(6-methyl-1-(1-methyl-6-oxo-1,6-dihydropyridin-3-yl)-1H-indazol-5-yl)pyrrolidin-1-yl)sulfonyl)benzonitrile] | 62
6.1 | Cc1cc2c(cnn2-c2ccc(=O)n(C)c2)cc1C1(Cc2ccccc2)CCN(S(=O)(=O)c2ccnn2C)C1 (stereo not drawn) [Example 293, 5-(5-(3-benzyl-1-((1-methyl-1H-pyrazol-5-yl)sulfonyl)pyrrolidin-3-yl)-6-methyl-1H-indazol-1-yl)-1-methylpyridin-2(1H)-one] | 100
5.6 | Cc1cc2c(cnn2-c2ccc(=O)[nH]c2)cc1C1(Cc2ccccc2)CCN(S(=O)(=O)c2cnn(C)n2)C1 (stereo not drawn) [Example 267, 5-(5-(3-benzyl-1-((2-methyl-2H-1,2,3-triazol-4-yl)sulfonyl)pyrrolidin-3-yl)-6-methyl-1H-indazol-1-yl)pyridin-2(1H)-one] | 93
5.4 | Cc1cc2c(cnn2-c2ccc(=O)n(C)c2)cc1C1(Cc2ccccc2)CCN(S(=O)(=O)c2ccn(C)n2)C1 (stereo not drawn) [Example 276, 5-(5-(3-benzyl-1-((1-methyl-1H-pyrazol-3-yl)sulfonyl)pyrrolidin-3-yl)-6-methyl-1H-indazol-1-yl)-1-methylpyridin-2(1H)-one] | 52
4.7 | Cc1cc2c(cnn2-c2ccc(=O)n(C)c2)cc1C1(Cc2ccccc2)CCN(S(=O)(=O)c2cnn(C)n2)C1 (stereo not drawn) [Example 266, 5-(5-(3-benzyl-1-((2-methyl-2H-1,2,3-triazol-4-yl)sulfonyl)pyrrolidin-3-yl)-6-methyl-1H-indazol-1-yl)-1-methylpyridin-2(1H)-one] | 40
4.6 | Cc1cc2c(cnn2-c2ccc(=O)n(C)c2)cc1C1(Cc2ccccc2)CCN(S(=O)(=O)c2cncc(F)c2)C1 (stereo not drawn) [Example 300, 5-(5-(3-benzyl-1-((5-fluoropyridin-3-yl)sulfonyl)pyrrolidin-3-yl)-6-methyl-1H-indazol-1-yl)-1-methylpyridin-2(1H)-one] | 36
4 | Cc1cc2c(cnn2-c2ccc(=O)n(C)c2)cc1C1(Cc2ccccc2)CCN(S(=O)(=O)c2ccccc2)C1 (stereo not drawn) [Example 294, 5-(5-(3-benzyl-1-(phenylsulfonyl)pyrrolidin-3-yl)-6-methyl-1H-indazol-1-yl)-1-methylpyridin-2(1H)-one] | 41
3.6 | Cc1cc2c(cnn2-c2ccc(=O)n(C)c2)cc1C1(Cc2ccccc2)CCN(S(=O)(=O)c2ccc(F)cc2)C1 (stereo not drawn) [Example 298, 5-(5-(3-benzyl-1-((4-fluorophenyl)sulfonyl)pyrrolidin-3-yl)-6-methyl-1H-indazol-1-yl)-1-methylpyridin-2(1H)-one] | 37
2.9 | [2H]C([2H])([2H])n1cc(-n2ncc3cc(C4(Cc5ccccc5)CCN(S(=O)(=O)c5cnn(C)n5)C4)c(C)cc32)ccc1=O (stereo not drawn) [Example 261, 5-(5-(3-benzyl-1-((2-methyl-2H-1,2,3-triazol-4-yl)sulfonyl)pyrrolidin-3-yl)-6-methyl-1H-indazol-1-yl)-1-(methyl-d3)pyridin-2(1H)-one] | 44
